From patent US20250161391A1, “UROLITHIN COMBINATION” (Amazentis SA, priority 2023, published 2025)
Entries after “also recorded” stand apart in the source; their conditions may differ.

System: mouse IL-6
Experiment: IL-6 ELISA on culture medium of differentiated C2C12 cells exposed to a cytokine mixture (cytomix, CTX)
Type: cell-based
Details: for % reduction IL-6: C2C12, 24 h pre-treatment, then 24 h with cytomix; for IL-6 / anti-inflammatory effect (FIG. 1): pre-treatment for 24 hours at 3.125 μM alone
Method: C2C12 Myoblasts purchased from ATCC (ref. CRL-1772) were seeded at 8000 cells per well in a 96 well plate (Greiner) using a DMEM Glutamax 4.5g D-glucose (Gibco, ref 31966021) supplemented with FIBS 10% (PanBiotech, ref P190902), 1% PenStrep (Biowest) and 1% Hepes (Biowest). Cells were then differentiated for 6 days using a differentiation medium (DMEM Glutamax 4.5g D-glucose (Gibco, ref 31966021), 2% Horse serum (Thermofisher, ref 160501229) 1% PenStrep and 1% Hepes). All media were sterilized with a 0.45 um filter unit (VWR). After 4 days of the differentiation cells were treated for 24 h with 1) Urolithin A (UA) resuspended in DMSO, 2) ginsenoside […]-3832) or 3) a combination of the two at the indicated doses. A cytokine mixture (“cytomix”) was added at day 5 in addition of the previous treatment for another 24 h, cytokines were respectively used at 5ng (mIFN-γ (Roche ref. 11276905001), TNF-α (Peprotech ref. 300-01A) and IL-1β (Proteintech ref. 200-01B)). The medium was collected and an ELISA for Interleukin-6 were performed following the instruction provided by the supplier (Proteintech ref. KE10007). In particular, the IL-6 ELISA kit is to be used to detect and quantify protein levels of endogenous mouse IL-6. The assay recognizes mouse IL-6. An antibody specific for mouse IL-6 has been pre-coated onto the microwells. The IL-6 protein in samples is captured by the coated antibody after incubation. Following extensive washing, another antibody of biotinylated specific for mouse IL-6 is added to detect the captured mouse IL-6 protein. For signal development, Streptavidin-HRP is added, followed by Tetramethyl-benzidine (TMB) reagent. Solution containing sulfuric acid is used to stop colour development and the colour intensity which is proportional to the quantity of bound protein is measurable at 450 nm with the correction wavelength set at 630 nm, using a microplate plate reader (Fluostar Optima, BMG Labtech). We exposed of C2C12 to a mix of pro-inflammatory cytokines (cytomix, CTX) to induce inflammation signals. Interleukin-6 (IL-6), a multifunctional cytokine produced in cells and induced by a variety of stimulating signals. IL-6 production and release in the media is a proxy of the inflammation induced by treatment with the cytokines part of the cytomix (Tosato & Jones (1990) Blood 75(6), 1305-10). With cytomix treatment, we observed a significant increase in Interleukin 6 (IL-6) secretion, measured as the concentration of IL-6 in the cell culture media.

Compound | % reduction IL-6 (CTX 5 ng vs. Rg1 3.125 μM + CTX) | IL-6 / anti-inflammatory effect (FIG. 1) (cytomix-treated C2C12) | IL-6 / anti-inflammatory effect (FIG. 1) (cytomix-treated C2C12, listed as Rg1) | IL-6 (FIG. 1) (pre-treatment for 24 hours at 12.5 μM, cytomix-treated C2C12) | IL-6 (FIG. 1) (pre-treatment for 24 hours at 100 μM, cytomix-treated C2C12) | IL-6, dose dependence (FIG. 1) (pre-treatment for 24 hours, 3.125 to 100 μM, cytomix-treated C2C12) | % reduction IL-6 (CTX 5 ng vs. UA 6.25 μM + CTX) [%] | IL-6 secretion (FIG. 1) (pre-treatment for 24 hours at 6.25 μM, cytomix-treated C2C12)
CC(C)=CCC[C@](C)(O[C@@H]1O[C@H](CO)[C@@H](O)[C@H](O)[C@H]1O)[C@H]1CC[C@]2(C)[C@@H]1[C@H](O)C[C@@H]1[C@@]3(C)CC[C@H](O)C(C)(C)[C@@H]3[C@@H](O[C@@H]3O[C@H](CO)[C@@H](O)[C@H](O)[C@H]3O)C[C@]12C [Ginsenoside Rg1, ginsenoside Rg1] | +9.8% | no effects | did not show any anti-inflammatory effect alone; also recorded: no effects | non-significant trend in reduction | significant decrease | dose dependent decrease in IL-6 | – | –
O=c1oc2cc(O)ccc2c2ccc(O)cc12 [Urolithin A] | – | – | – | – | – | – | −16 | significantly decreased IL-6 secretion
